Results on 39 molecules are retold here after US9751854B2 (Millennium Pharmaceuticals, Inc., priority 2014, dated 2017).

A value given as a limit tells only on which side of the number the result lay.

human VPS34, sequence (Q8NEB9 whole entry): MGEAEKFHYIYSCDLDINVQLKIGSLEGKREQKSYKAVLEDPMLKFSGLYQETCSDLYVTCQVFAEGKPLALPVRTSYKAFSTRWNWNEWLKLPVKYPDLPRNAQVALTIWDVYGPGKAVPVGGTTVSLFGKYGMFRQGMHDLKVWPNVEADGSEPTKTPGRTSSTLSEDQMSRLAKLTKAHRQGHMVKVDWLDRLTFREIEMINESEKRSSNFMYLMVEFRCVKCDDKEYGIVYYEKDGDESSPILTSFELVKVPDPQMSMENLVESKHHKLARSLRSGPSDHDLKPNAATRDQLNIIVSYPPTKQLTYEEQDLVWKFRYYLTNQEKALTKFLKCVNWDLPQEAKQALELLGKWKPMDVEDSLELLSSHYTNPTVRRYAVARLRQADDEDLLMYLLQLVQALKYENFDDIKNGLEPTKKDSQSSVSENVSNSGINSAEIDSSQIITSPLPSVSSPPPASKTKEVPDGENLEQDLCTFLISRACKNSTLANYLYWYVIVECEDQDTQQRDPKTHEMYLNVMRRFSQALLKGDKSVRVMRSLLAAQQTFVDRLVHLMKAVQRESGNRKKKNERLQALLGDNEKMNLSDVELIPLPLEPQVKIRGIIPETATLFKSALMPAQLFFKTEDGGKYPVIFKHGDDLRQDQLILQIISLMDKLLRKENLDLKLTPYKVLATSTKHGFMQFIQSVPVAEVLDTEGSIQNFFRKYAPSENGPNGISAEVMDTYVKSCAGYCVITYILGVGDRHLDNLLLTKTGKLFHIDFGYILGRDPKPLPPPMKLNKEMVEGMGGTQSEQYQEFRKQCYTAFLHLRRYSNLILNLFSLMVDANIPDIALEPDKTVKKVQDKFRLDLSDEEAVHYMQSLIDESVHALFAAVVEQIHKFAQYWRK

This test concerns the target human VPS34 (Homo sapiens (Human), UniProt Q8NEB9). Description: Human VPS34 enzyme assay (Adapta TR-FRET ADP detection). The test is classed as biochemical. To be noted: IC50 range class.
The molecule `CCN(CC)S(=O)(=O)c1cc(-c2ccnc(NC(C)=O)c2)cnc1N` [Compound I-124, N-[6-amino-5-(diethylsulfamoyl)-3,4′-bipyridin-2′-yl]acetamide] displayed a half-inhibitory concentration (IC50) below 10 nM. For `CCN(c1cc(-c2ccnc(NC(C)=O)c2)cnc1C)S(=O)(=O)C1CC1` [Compound I-26, N-{5-[(cyclopropylsulfonyl)(ethyl)amino]-6-methyl-3,4′-bipyridin-2′-yl}acetamide] the value was 50 to 100 nM; for `CC(=O)Nc1cc(-c2cncc(C(=O)/C=C/c3ccc(F)cc3)c2)ccn1` [Compound I-198, N-[5-[(2E)-3-(4-fluorophenyl)prop-2-enoyl]-3,4′-bipyridin-2′-yl}acetamide], above 100 nM.

As for `CC(=O)Nc1cc(-c2cncc(S(=O)(=O)NC(C)(C)C)c2C)ccn1` [Compound I-462, N-(5-(N-(tert-butyl)sulfamoyl)-4-methyl-[3,4′-bipyridin]-2′-yl)acetamide], the concentration for half-maximal inhibition (IC50) was above 100 nM. Under `CC(=O)Nc1cc(-c2cnc(N)c(S(=O)(=O)N3CCOCC3)c2)ccn1` [Compound I-24, N-[6-amino-5-(morpholin-4-ylsulfonyl)-3,4′-bipyridin-2′-yl]acetamide] stands below 10 nM; under `CC(=O)Nc1cc(-c2cnc(C)c(NS(=O)(=O)N3CCC(C)(C)CC3)c2)ccn1` [Compound I-483, N-(5-{[(4,4-dimethylpiperidin-1-yl)sulfonyl]-amino}-6-methyl-3,4′-bipyridin-2′-yl)acetamide], 10 to 50 nM; under `Cc1c(-c2ccnc(NC(=O)C3CC3(F)F)c2)cnc(Cl)c1NS(=O)(=O)c1ccc(F)cc1F` (stereo not drawn) [Compound I-254, N-(6-chloro-5-{[(2,4-difluorophenyl)sulfonyl]amino}-4-methyl-3,4′-bipyridin-2′-yl)-2,2-difluorocyclopropanecarboxamide], 10 to 50 nM. Take `CC(=O)Nc1cc(-c2cnc(N)c(S(=O)(=O)Cc3ccccc3Cl)c2)ccn1` [Compound I-172, N-{6-amino-5-[(chlorobenzyl)sulfonyl]-3,4′-bipyridin-2′-yl}acetamide]: the half-inhibitory concentration (IC50) was in the range of 10 to 50 nM. Under `CC(=O)Nc1cc(-c2cncc(NS(=O)(=O)c3ccc(F)cc3F)c2)ccn1` [Compound I-12, N-(5-{[(2,4-difluorophenyl)sulfonyl]amino}-3,4′-bipyridin-2′-yl)acetamide] stands below 10 nM; under `COc1ncc(-c2ccnc(NC(C)=O)c2)cc1NS(=O)(=O)c1ccc(F)cc1F` [Compound I-104, N-(5-{[(2,4-difluorophenyl)sulfonyl]amino}-6-methoxy-3,4′-bipyridin-2′-yl)acetamide], below 10 nM; under `Cc1nccc(Nc2cc(-c3cnc(C)c(OCCN(C)C)c3)ccn2)n1` [Compound I-379, 5-[2-(dimethylamino)ethoxy]-6-methyl-N-(2-methylpyrimidin-4-yl)-3,4′-bipyridin-2′-amine], above 100 nM. Under `CCS(=O)(=O)c1cc(-c2ccnc(NC(C)=O)c2)cnc1N` [Compound I-69, N-[6-amino-5-(ethylsulfonyl)-3,4′-bipyridin-2′-yl]acetamide] stands 10 to 50 nM; under `CNc1ncc(-c2ccnc(Nc3ccncn3)c2)cc1C(=O)N(C)C12CC(C1)C2` [Compound I-222, N-(bicyclo[1.1.1]pent-1-yl)-N-methyl-6-(methylamino)-2′-(pyrimidin-4-ylamino)-3,4′-bipyridine-5-carboxamide], 10 to 50 nM; under `COc1ncc(-c2ccnc(NC(C)=O)c2)cc1S(=O)(=O)Nc1ccc(Cl)cc1Cl` [Compound I-344], 10 to 50 nM. Under `CCN(CC)C(=O)c1cc(-c2ccnc(NC(C)=O)c2)cnc1N` [Compound I-27, 2′-acetamido-6-amino-N,N-diethyl-3,4′-bipyridine-5-carboxamide] stands below 10 nM; under `COC(=O)Nc1cc(-c2cnc(C)c(NS(=O)(=O)N(C)C)c2)ccn1` [Compound I-241, methyl (5-[(dimethylsulfamoyl)amino]-6-methyl-3,4′-bipyridin-2′-yl]carbamate], 10 to 50 nM. Consider `CC(=O)Nc1cc(-c2cnc3[nH]c(C)nc3c2)ccn1` [Compound I-66, N-[4-(2-methyl-3H-imidazo[4,5-b]pyridin-6-yl)pyridin-2-yl]acetamide], for which the IC50 is above 100 nM. For `CC(=O)Nc1cc(-c2cnc(N)c(S(=O)(=O)N(C)c3ccccc3)c2)ccn1` [Compound I-37, N-{6-amino-5-[methyl(phenyl)sulfamoyl]-3,4′-bipyridin-2′-yl}acetamide] the value was below 10 nM. With `CC(=O)Nc1cc(-c2cnc3c(c2)N(CC2CC2)S(=O)(=O)N3)ccn1` [Compound I-29, N-{4-[1-(cyclopropylmethyl)-2,2-dioxido-1,3-dihydro[1,2,5]thiadiazolo[3,4-b]pyridin-6-yl]pyridin-2-yl}acetamide], the 50% inhibitory concentration (IC50) was in the range of 10 to 50 nM. Molecule `Cc1ncc(-c2ccnc(-n3cnc4c(C)nccc43)c2)cc1NS(=O)(=O)N(C)C` [Compound I-263, N,N-dimethyl-N′-[6-methyl-2′-(4-methyl-1H-imidazol[4,5-c]pyridin-1-yl)-3,4′-bipyridin-5-yl]sulfuric diamide] displayed a half-inhibitory concentration (IC50) above 100 nM. Under `CC(=O)Nc1cc(-c2cnc(N)c(C(=O)N3CCc4ccccc43)c2)ccn1` [Compound I-71, N-[6-amino-5-(2,3-dihydro-1H-indol-1-ylcarbonyl)-3,4′-bipyridin-2′-yl]acetamide] stands below 10 nM; under `CC(=O)Nc1cc(-c2cncc(S(=O)(=O)NC34CC(C3)C4)c2)ccn1` [Compound I-190, N-[5-(bicyclo[1.1.1]pent-1-ylsulfamoyl)-3,4′-bipyridin-2′-yl]acetamide], 10 to 50 nM; under `Cc1nccc(Nc2cc(-c3cnc(C)c(C(=S)N4CCC4)c3)ccn2)n1` [Compound I-223, Azetidin-1-yl{6-methyl-2′-[(2-methylpyrimidin-4-yl)amino]-3,4′-bipyridin-5-yl}methanethione], 10 to 50 nM.

The molecule `CC(=O)Nc1cc(-c2cnc(N)c(C(=O)N3Cc4ccccc4C3)c2)ccn1` [Compound I-125] had a concentration for half-maximal inhibition (IC50) below 10 nM. For `Cc1nccc(Nc2cc(-c3cc(N)c4ccnn4c3)ccn2)n1` [Compound I-480, 6-{2-[(2-methylpyrimidin-4-yl)amino]pyridin-4-yl}pyrazolo[1.5-a]pyridin-4-amine] the value was 50 to 100 nM; for `Cc1nccc(Nc2cc(-c3c[n+]([O-])c(Cl)c(NS(=O)(=O)c4ccc(F)cc4F)c3C)ccn2)n1` [Compound I-454, N-(2-chloro-4-methyl-5-{2-[(2-methylpyrimidin-4-yl)amino)pyridin-4-yl}-1-oxidopyridin-3-yl)-2,4-difluorobenzenesulfonamide], below 10 nM. Molecule `CC(=O)Nc1cc(-c2cnc(N)c(S(=O)(=O)O)c2)ccn1` [Compound I-122, 2′-acetamido-6-amino-3,4′-bipyridine-5-sulfonic acid] displayed an IC50 of 50 to 100 nM. For `Cc1nccc(Nc2cc(-c3cnc(Cl)c(C(=O)O)c3C)ccn2)n1` [Compound I-402, 6-chloro-4-methyl-2′-[(2-methylpyrimidin-4-yl)amino]-3,4′-bipyridine-5-carboxylic acid] the value was 10 to 50 nM. Under `CC(=O)Nc1cc(-c2cnc3c(c2)S(=O)(=O)N[C@H](c2ccccc2)CO3)ccn1` [Compound I-420, (R)-N-(4-(1,1-dioxido-3-phenyl-3,4-dihydro-2H-pyrido[2,3-b][1,4,5]oxathiazepin-8-yl)pyridin-2-yl)acetamide] stands above 100 nM; under `Cc1nccc(Nc2cc(-c3cnc(C)c(NS(=O)(=O)N(C)C)c3)ccn2)n1` [Compound I-286, N,N-dimethyl-N′-{6-methyl-2′-[(2-methylpyrimidin-4-yl)amino]-3,4′-bipyridine-5-yl}sulfuric diamide], below 10 nM; under `CC(=O)Nc1cc(-c2cnc(C)c(NS(=O)(=O)c3cccc(C)c3F)c2)ccn1` [Compound I-339, N-(5-{[(2-fluoro-3-methylphenyl)sulfonyl]amino}-6-methyl-3,4′-bipyridin-2′-yl)acetamide], 10 to 50 nM. Under `CNC1CN(c2cc(-c3ccnc(NC(C)=O)c3)cnc2C)S(=O)(=O)C1` (stereo not drawn) [Compound I-325, N-{6-methyl-5-[4-(methylamino)-1,1-dioxidoisothiazolidin-2-yl]-3,4′-bipyridin-2′-yl}acetamide] stands 10 to 50 nM; under `CC(=O)Nc1cc(-c2cnc(C)c(NS(=O)(=O)c3c(Cl)cccc3Cl)c2)ccn1` [Compound I-463, N-[5-{[(2,6-dichlorophenyl)sulfonyl]amino}-6-methyl-3,4′-bipyridin-2′-yl)acetamide], below 10 nM. As to `CC(=O)Nc1cc(-c2cc(NS(=O)(=O)c3ccc(F)cc3F)c3ccnn3c2)ccn1` [Compound I-404, N-[4-(4-{[(2,4-difluorophenyl)sulfonyl]amino}pyrazolo[1,5-a]pyridin-6-yl)pyridin-2-yl]acetamide], the concentration for half-maximal inhibition (IC50) fell in the range of 10 to 50 nM. For `Cc1c(-c2ccnc(Nc3ccncn3)c2)cnc(Cl)c1NS(=O)(=O)c1ccc(F)cc1F` [Compound I-282, N-[6-chloro-4-methyl-2′-(pyrimidin-4-ylamino)-3,4′-bipyridin-5-yl]-2,4-difluorobenzenesulfonamide] the value was below 10 nM. `CC(=O)Nc1cc(-c2cnc(C)c(NS(C)(=O)=O)c2)ccn1` [Compound I-167, N-{6-methyl-5-[(methylsulfonyl)amino]-3,4′-bipyridin-2′-yl}acetamide] displayed a half-inhibitory concentration (IC50) of 10 to 50 nM. Under `CC(=O)Nc1cc(-c2cnc(C)c(S(=O)(=O)NC34CC(C3)C4)c2)ccn1` [Compound I-418, N-[5-(bicyclo[1.1.1]pent-1-ylsulfamoyl)-6-methyl-3,4′-bipyridin-2′-yl]acetamide] stands 10 to 50 nM; under `CCN(C)S(=O)(=O)Nc1cc(-c2ccnc(NC(C)=O)c2)cnc1C` [Compound I-273, N-(5-{[ethyl(methyl)sulfamoyl]amino}-6-methyl-3,4′-bipyridin-2′-yl)acetamide], below 10 nM; under `CC(=O)Nc1cc(-c2cnc(N)c(S(=O)(=O)Cc3cccnc3)c2)ccn1` [Compound I-205, N-{6-amino-5-[(pyridin-3-ylmethyl)sulfonyl]-3,4′-bipyridin-2′-yl}acetamide], 10 to 50 nM.
